Test results as given in patent publication US20110293558A1, “MATERIAL PROPERTIES OF T CELLS AND RELATED METHODS AND COMPOSITIONS” (Massachusetts Institute of Technology, priority 2010, published 2011).
“Also recorded” adds a separate entry of the source.

Key:
[1] = test system: RBCs re-suspended in saline / Ringer solution; conditions: cited from earlier work
parasitemia = conditions: patients treated with artemisinin and its derivatives vs other antimalarial drugs; cited from earlier work
[2] = test system: P. falciparum-infected RBCs (iRBCs); experiment: Microfluidic deformability cytometer: cell mobility after artesunate treatment; assay type: cell-based, human; conditions: for iRBC deformability (cell mobility) after artesunate drug treatment: 0.01, 0.05 or 0.1 μg/ml artesunate, 2, 4 and 6 hours after treatment, synchronized rings ~15% parasitemia; for separation resolution between iRBCs and uRBCs: after artesunate drug treatment vs untreated
Excerpt: (§1) The device used in this example comprises a series of equally spaced triangular pillar arrays with pore sizes ranging from 2.5 to 4 um (FIG. 55A illustrates the case of 3 um pore size). Compared to the diameter of an average RBC (˜7.5 um), the smaller pore sizes are designed to impose similar mechanical constraints on the cells as if they are passing through blood capillaries and splenic meshwork. Driven by constant pressure gradient in the sub-Pascal-per-micrometer range, RBCs are able to deform substantially at each constriction and traverse along the channel. The dynamic deformability of RBCs is then characterized by their mobility: the ability to deform repeatedly in order to pass through multiple constrictions in series.
(§2) FIG. 55A depicts an experimental schematic of the microfluidic system. A heating chamber (Olympus) was mounted to the inverted microscope stage. Four heaters for the inner water bath, microscope stage, chamber top, and lens were designed to accurately control the ambient temperature inside the chamber. The PDMS-glass bonded device consists of the inlet and outlet reservoirs and main channels with triangular pillar arrays. It was placed inside the heating chamber with only the inlet reservoir connecting to an external syringe via a 20 cm-tubing. The reservoirs were 500×500 μm^2 squares with 20 μm-interspacing cylindrical pillar arrays; these pillar arrays could pre-filter white blood cells from whole blood, allowing only RBCs to pass through the main channels. Each of the parallel channels was 10 pillars wide and 200 pillars long. Along the flow direction, the inter-pillar spacing was 10 μm. This spacing allows deformed cells to recover and ready for subsequent deformations. Perpendicular to the flow direction, the pore size varied from 2.5 to 4 μm for different channels. Cells experience different levels of deformation when passing through these pores.
(§3) FIG. 55B presents microscopic screenshots illustrating both iRBCs and co-cultured uRBCs moving in the microchannel at different temperature conditions. The uninfected cells appear as dark shadows indicated by blue arrows, and the infected cells with thiazole orange (TO) staining appear as bright dots indicated by white arrows. The mobility of individual cells can then be derived by recording the time period for each cell passing through 10 constrictions in series (i.e. equivalent to 200 μm distance travelled). In this example, cell mobility is used to characterize the dynamic deformability of individual RBCs.
(§4) The deformability of both iRBCs and uRBCs were measured at 2, 4 and 6 hours after artesunate drug treatment (FIG. 60). A synchronized culture of rings with ˜15% parasitemia was resuspended at 0.1% hematocrit in malaria culture medium containing 0.01, 0.05 or 0.1 μg/ml of artesunate.
(§5) Layout program CleWin3.0 was used to design the microfluidic device, which consists of a 500×500 μm^2 inlet reservoir, a 500×500 μm^2 outlet reservoir, and parallel capillary channels with triangular pillar arrays (FIG. 55A). Three different pore-size of 2.5, 3.0 and 4.0 μm were designed for the capillary channels to test optimum deformation condition for the experiment. A silicon mold of the device was made using standard silicon processing techniques. The photolithography step was done using a 5× reduction step-and-repeat projection stepper (Nikon NSR2005i9, Nikon Prevision) and reactive-ion etching (RIE) techniques were used to give the mold a final depth of 4.2 μm. Final device was then casted from the silicon mold using polydimethylsiloxane (PDMS) and was sealed by a glass slide using oxygen plasma.
(§6) P. falciparum 3D7A parasites (from Malaria Research and Reference Reagent Source, American Type Culture Collection) were cultured in leukocyte-free human RBCs (Research Blood Components, Brighton Mass.) in RPMI 1640 complete medium as described (Trager and Jensen J. parasitol. 2005). […]

[3] = test system: co-cultured uninfected RBCs (uRBCs); experiment: as above; assay type: cell-based, human; conditions: 0.01, 0.05 or 0.1 μg/ml artesunate; 2, 4 and 6 hours after treatment
Excerpt: as §1, §2, §3, §4, §5, §6

RBCs = experiment: Deformability cytometer: RBC velocity/passage after glutaraldehyde treatment; assay type: cell-based, human
Excerpt: The device design includes periodically spaced, triangle-shaped pillars and the gaps between these pillars result in well-controlled constrictions for RBCs to pass. The height of the device was set to 4.2 μm. RBCs were forced to assume a flat orientation before entering each constriction. This height, in addition to filters at the reservoirs, prevented white blood cells from entering the device, and permitted diluted whole blood to be used directly.
A mold of the device was made on a silicon wafer using photolithography and reactive-ion etching techniques. A 5× reduction step-and-repeat projection stepper (Nikon NSR2005i9, Nikon Precision) was used for patterning. The spacing between pillars was 3 μm, and the depth of the device was 4.2 μm. The device was made using standard PDMS casting protocols and bonded to a glass slide.
PBS was mixed with 0.2% w/v Pluronic F-108 (BASF, Mount Olive, N.J.) and 1% w/v Bovine Serum Albumin (BSA) (Sigma-Aldrich, St. Louis, Mo.) as a stock solution to prevent RBC adhesion to the device walls. For the fluorescent bead experiments, 200 nm FluoSpheres europium luminescent microspheres (Molecular Probes, Eugene, Oreg.) diluted to a final concentration of 1.25×10^−5 percent solids were used.
In experiments involving blood, 1 μl of whole blood (˜50% hematocrit) was diluted in 100 μl of the PBS-pluronic-BSA solution for all of the experiments. […]

For `CC=O` [acetaldehyde], the “RBC hardening / suspension viscosity” value ([1]; prolonged exposure of clean RBCs to acetaldehyde, re-suspension in Ringer solution) is listed as “constant suspension viscosity over the full range of hematocrit and shear rates”.
In the case of `C[C@@H]1CC[C@H]2[C@@H](C)C(=O)O[C@@H]3O[C@@]4(C)CC[C@@H]1[C@]32OO4` [artemisinin], the decline in parasitemia (parasitemia) is listed as “more rapid decline in parasitemia”.
With `C[C@H]1[C@H](OC(=O)CCC(=O)O)O[C@@H]2O[C@@]3(C)CC[C@H]4[C@H](C)CC[C@@H]1[C@@]24OO3` [artesunate] the “iRBC deformability (cell mobility) after artesunate drug treatment” value [2] was “stiffening effect; also recorded: drop in iRBC deformability is more precipitous than in uRBC”, the “iRBC deformability (cell mobility) after artesunate drug treatment” value ([2]; listed as Artesunate) was “significant decrease in cell mobility” and the mobility decrease ([2]; 2 and 4 hours after artesunate treatment, iRBCs and uRBCs both measured) was “smaller and less pronounced mobility decrease”. The “dose dependence of mobility changes” value ([2]; after 4 hour drug treatment, dosage range 0.01 to 0.1 μg/ml) was “no statistically significant dose dependence”, the “separation resolution between iRBCs and uRBCs” value [2] was “almost doubled” and the “separation resolution between iRBCs and uRBCs” value ([2]; listed as Artesunate) was “doubled”. The “uRBC deformability (cell mobility) after artesunate drug treatment” value [3] was “stiffening effect; also recorded: stiffened considerably”.
For `O=CCCCC=O` [glutaraldehyde], the “RBC stiffness / velocity with increasing glutaraldehyde concentration” value (RBCs; 30 minutes in PBS, approx. 0.61 Pa/μm, FIG. 5B) was “progressively stiffer with decreasing velocity” and the “RBC passage into the channel” value (RBCs; glutaraldehyde concentrations greater than 0.003%) was “most RBCs were held up at the entrance to the channel”.
In the case of Fibrinogen, the suspension viscosity ([1]; fibrinogen added progressively to washed RBCs in pure saline) is listed as “increase in viscosity with increasing fibrinogen concentration at low deformation rates”.
